Experimental data reported in publication PMC7385619, “A triple action CDK4/6-PI3K-BET inhibitor with augmented cancer cell cytotoxicity” (Cell Discovery, 2020).
Where “and” joins values, the source holds several entries; their conditions need not be identical. Identical values can stand only once. Like-named read-outs stand apart in the source and are kept apart here.

Experiments:
Test in all cases: KINOMEscan assay (Eurofins DiscoverX)
Assay type in all cases: binding
kinome (kinase panel) [1] = biological target: T1, kinome (kinase panel) (Homo sapiens, UniProt P49761); settings: CLK3; 1000 nM; read-out: Percent Control
T1 construct: purchased Eurofins DiscoverX

kinome (kinase panel) [2] = biological target: T2, kinome (kinase panel) (Homo sapiens, UniProt Q9Y2H9); settings: MAST1; 1000 nM; read-out: Percent Control
T2 construct: purchased Eurofins DiscoverX

kinome (kinase panel) [3] = biological target: T3, kinome (kinase panel) (Homo sapiens, UniProt Q15139); settings: PRKD1; 1000 nM; read-out: Percent Control
T3 construct: purchased Eurofins DiscoverX

kinome (kinase panel) [4] = biological target: T4, kinome (kinase panel) (Homo sapiens, UniProt Q9Y2I7); settings: PIKFYVE; 1000 nM; read-out: Percent Control
T4 construct: purchased Eurofins DiscoverX

kinome (kinase panel) [5] = biological target: T5, kinome (kinase panel) (Homo sapiens, UniProt Q16816); settings: PHKG1; 1000 nM; read-out: Percent Control
T5 construct: purchased Eurofins DiscoverX

kinome (kinase panel) [6] = biological target: T6, kinome (kinase panel) (Homo sapiens, UniProt Q5VT25); settings: MRCKA (Entrez CDC42BPA); 1000 nM; read-out: Percent Control
T6 construct: purchased Eurofins DiscoverX

kinome (kinase panel) [7] = biological target: T7, kinome (kinase panel) (Homo sapiens, UniProt Q9UQ88); settings: CDC2L2; 1000 nM; read-out: Percent Control
T7 construct: purchased Eurofins DiscoverX
T7 sequence (Q9UQ88 whole entry): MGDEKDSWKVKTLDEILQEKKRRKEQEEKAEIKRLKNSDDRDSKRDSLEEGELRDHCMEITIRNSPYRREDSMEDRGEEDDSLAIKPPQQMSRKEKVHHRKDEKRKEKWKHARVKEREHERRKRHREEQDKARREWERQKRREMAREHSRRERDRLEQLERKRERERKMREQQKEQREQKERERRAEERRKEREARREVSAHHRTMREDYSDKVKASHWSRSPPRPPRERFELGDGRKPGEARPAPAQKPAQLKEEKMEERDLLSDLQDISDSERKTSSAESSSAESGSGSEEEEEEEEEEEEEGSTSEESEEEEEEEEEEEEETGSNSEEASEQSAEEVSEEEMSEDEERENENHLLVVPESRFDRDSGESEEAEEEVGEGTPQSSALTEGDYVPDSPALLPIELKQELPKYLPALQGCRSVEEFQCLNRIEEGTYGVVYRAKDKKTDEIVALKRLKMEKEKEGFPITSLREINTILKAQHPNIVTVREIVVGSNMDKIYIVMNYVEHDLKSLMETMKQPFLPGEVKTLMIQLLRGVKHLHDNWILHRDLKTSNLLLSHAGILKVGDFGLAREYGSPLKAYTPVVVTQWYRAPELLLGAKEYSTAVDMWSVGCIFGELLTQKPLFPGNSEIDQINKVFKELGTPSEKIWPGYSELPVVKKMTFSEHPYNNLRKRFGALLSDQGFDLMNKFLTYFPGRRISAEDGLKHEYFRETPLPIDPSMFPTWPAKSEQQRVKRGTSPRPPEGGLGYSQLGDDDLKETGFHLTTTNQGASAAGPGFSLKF

kinome (kinase panel) [8] = biological target: T8, kinome (kinase panel) (Homo sapiens, UniProt P00519, F317L)
T8 construct: purchased Eurofins DiscoverX

kinome (kinase panel) [9] = biological target: T9, kinome (kinase panel) (Homo sapiens, UniProt O75676); settings: 1000 nM, read-out: Percent Control
T9 construct: purchased Eurofins DiscoverX
T9 sequence (O75676 whole entry): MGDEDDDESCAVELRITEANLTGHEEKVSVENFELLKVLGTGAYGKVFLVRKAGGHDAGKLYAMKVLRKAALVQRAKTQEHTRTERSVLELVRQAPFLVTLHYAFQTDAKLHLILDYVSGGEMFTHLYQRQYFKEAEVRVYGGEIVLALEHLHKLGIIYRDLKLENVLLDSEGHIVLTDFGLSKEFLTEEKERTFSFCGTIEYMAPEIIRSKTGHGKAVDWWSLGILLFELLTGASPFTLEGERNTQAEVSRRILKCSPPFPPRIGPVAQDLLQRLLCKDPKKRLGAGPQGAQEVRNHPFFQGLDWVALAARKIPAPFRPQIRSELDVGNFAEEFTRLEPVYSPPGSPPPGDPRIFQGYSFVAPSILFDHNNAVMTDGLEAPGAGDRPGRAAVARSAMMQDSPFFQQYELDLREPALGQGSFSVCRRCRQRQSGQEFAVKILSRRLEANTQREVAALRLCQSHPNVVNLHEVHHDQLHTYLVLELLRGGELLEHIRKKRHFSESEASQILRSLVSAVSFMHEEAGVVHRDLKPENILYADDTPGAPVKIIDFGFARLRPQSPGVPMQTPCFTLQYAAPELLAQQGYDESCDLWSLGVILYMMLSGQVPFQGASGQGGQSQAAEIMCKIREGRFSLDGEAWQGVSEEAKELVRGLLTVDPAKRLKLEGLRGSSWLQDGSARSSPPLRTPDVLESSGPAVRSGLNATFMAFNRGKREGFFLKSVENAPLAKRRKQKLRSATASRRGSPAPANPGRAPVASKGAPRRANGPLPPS

kinome (kinase panel) [10] = biological target: T10, kinome (kinase panel) (Homo sapiens, UniProt Q8WU08); settings: YANK1 (STK32A); 1000 nM; read-out: Percent Control
T10 construct: purchased Eurofins DiscoverX

kinome (kinase panel) [11] = biological target: T11, kinome (kinase panel) (Homo sapiens, UniProt P53671); settings: LIMK2; 1000 nM; read-out: Percent Control
T11 construct: purchased Eurofins DiscoverX

kinome (kinase panel) [12] = settings: for Percent Control: 1000 nM
kinome (kinase panel) [13] = biological target: T12, kinome (kinase panel) (Homo sapiens, UniProt P00519, H396P)
T12 construct: purchased Eurofins DiscoverX

kinome (kinase panel) [14] = biological target: T13, kinome (kinase panel) (Homo sapiens, UniProt P20794); settings: MAK; 1000 nM; read-out: Percent Control
T13 construct: purchased Eurofins DiscoverX

kinome (kinase panel) [15] = biological target: T14, kinome (kinase panel) (Homo sapiens, UniProt Q13164); settings: ERK5 (Entrez MAPK7); 1000 nM; read-out: Percent Control
T14 construct: purchased Eurofins DiscoverX

kinome (kinase panel) [16] = biological target: T15, kinome (kinase panel) (Homo sapiens, UniProt Q2M2I8); settings: AAK1; 1000 nM; read-out: Percent Control
T15 construct: purchased Eurofins DiscoverX

kinome (kinase panel) [17] = biological target: T16, kinome (kinase panel) (Homo sapiens, UniProt Q13131); settings: AMPK-alpha1 (Entrez PRKAA1); 1000 nM; read-out: Percent Control
T16 construct: purchased Eurofins DiscoverX
T16 sequence (Q13131 whole entry): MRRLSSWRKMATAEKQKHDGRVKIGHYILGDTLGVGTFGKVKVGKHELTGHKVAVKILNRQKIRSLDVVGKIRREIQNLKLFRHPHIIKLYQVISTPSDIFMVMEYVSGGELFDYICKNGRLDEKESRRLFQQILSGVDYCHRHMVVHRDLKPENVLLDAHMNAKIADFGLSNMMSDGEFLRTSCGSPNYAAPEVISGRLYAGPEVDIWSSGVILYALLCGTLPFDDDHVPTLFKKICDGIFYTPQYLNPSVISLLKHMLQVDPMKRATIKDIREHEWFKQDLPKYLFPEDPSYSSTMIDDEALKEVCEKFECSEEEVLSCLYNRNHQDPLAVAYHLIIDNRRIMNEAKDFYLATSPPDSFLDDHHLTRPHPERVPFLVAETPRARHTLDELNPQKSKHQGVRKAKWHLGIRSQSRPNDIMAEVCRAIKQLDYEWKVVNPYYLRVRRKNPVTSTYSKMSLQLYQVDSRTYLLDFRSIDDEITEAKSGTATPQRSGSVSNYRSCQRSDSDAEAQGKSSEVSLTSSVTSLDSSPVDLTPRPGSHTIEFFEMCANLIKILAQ

kinome (kinase panel) [18] = biological target: T17, kinome (kinase panel) (Homo sapiens, UniProt P42679); settings: CTK (Entrez MATK); 1000 nM; read-out: Percent Control
T17 construct: purchased Eurofins DiscoverX

kinome (kinase panel) [19] = biological target: T18, kinome (kinase panel) (Homo sapiens, UniProt Q14680); settings: MELK; 1000 nM; read-out: Percent Control
T18 construct: purchased Eurofins DiscoverX

kinome (kinase panel) [20] = biological target: T19, kinome (kinase panel) (Homo sapiens, UniProt O94804); settings: LOK (Entrez STK10); 1000 nM; read-out: Percent Control
T19 construct: purchased Eurofins DiscoverX

kinome (kinase panel) [21] = biological target: T20, kinome (kinase panel) (Homo sapiens, UniProt O95819); settings: MAP4K4; 1000 nM; read-out: Percent Control
T20 construct: purchased Eurofins DiscoverX
T20 sequence (O95819 whole entry): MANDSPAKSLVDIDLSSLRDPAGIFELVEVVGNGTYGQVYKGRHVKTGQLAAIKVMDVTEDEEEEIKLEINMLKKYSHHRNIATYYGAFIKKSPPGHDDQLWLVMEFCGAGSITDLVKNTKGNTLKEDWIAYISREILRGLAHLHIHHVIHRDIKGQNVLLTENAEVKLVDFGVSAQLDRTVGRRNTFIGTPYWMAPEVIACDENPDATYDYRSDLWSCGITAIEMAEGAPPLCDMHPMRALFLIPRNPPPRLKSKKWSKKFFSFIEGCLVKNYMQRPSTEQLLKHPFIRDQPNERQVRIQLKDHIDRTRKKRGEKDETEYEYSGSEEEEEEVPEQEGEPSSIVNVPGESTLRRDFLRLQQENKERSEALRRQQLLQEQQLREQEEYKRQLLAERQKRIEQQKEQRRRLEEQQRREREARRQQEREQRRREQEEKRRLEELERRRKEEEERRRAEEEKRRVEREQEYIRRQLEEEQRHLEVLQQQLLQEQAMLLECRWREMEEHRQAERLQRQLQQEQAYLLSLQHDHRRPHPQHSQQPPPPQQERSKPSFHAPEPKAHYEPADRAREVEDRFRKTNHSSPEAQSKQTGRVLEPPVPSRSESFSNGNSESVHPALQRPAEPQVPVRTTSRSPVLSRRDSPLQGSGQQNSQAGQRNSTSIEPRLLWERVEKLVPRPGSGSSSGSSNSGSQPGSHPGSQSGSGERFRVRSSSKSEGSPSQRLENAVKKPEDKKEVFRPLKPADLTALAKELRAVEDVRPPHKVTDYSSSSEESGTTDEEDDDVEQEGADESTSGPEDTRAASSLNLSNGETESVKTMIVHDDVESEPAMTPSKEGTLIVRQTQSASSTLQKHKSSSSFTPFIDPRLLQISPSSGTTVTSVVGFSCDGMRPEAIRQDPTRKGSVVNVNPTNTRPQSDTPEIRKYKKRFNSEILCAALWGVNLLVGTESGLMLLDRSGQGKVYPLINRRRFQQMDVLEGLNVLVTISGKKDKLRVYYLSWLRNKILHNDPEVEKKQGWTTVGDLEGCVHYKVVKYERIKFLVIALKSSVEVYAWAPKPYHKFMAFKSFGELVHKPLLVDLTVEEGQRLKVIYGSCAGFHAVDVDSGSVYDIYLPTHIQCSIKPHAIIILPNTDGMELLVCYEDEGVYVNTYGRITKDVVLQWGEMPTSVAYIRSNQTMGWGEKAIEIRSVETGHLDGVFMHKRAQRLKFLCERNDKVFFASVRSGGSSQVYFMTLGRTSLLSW

kinome (kinase panel) [22] = biological target: T21, kinome (kinase panel) (Homo sapiens, UniProt Q08881); settings: ITK; 1000 nM; read-out: Percent Control
T21 construct: purchased Eurofins DiscoverX

kinome (kinase panel) [23] = biological target: T22, kinome (kinase panel) (Homo sapiens, UniProt P16234); settings: PDGFRA; 1000 nM; read-out: Percent Control
T22 construct: purchased Eurofins DiscoverX

kinome (kinase panel) [24] = biological target: T23, kinome (kinase panel) (Homo sapiens, UniProt Q9H1R3); settings: MYLK2; 1000 nM; read-out: Percent Control
T23 construct: purchased Eurofins DiscoverX

kinome (kinase panel) [25] = biological target: T24, kinome (kinase panel) (Homo sapiens, UniProt Q96J92); settings: WNK4; 1000 nM; read-out: Percent Control
T24 construct: purchased Eurofins DiscoverX
T24 sequence (Q96J92 whole entry): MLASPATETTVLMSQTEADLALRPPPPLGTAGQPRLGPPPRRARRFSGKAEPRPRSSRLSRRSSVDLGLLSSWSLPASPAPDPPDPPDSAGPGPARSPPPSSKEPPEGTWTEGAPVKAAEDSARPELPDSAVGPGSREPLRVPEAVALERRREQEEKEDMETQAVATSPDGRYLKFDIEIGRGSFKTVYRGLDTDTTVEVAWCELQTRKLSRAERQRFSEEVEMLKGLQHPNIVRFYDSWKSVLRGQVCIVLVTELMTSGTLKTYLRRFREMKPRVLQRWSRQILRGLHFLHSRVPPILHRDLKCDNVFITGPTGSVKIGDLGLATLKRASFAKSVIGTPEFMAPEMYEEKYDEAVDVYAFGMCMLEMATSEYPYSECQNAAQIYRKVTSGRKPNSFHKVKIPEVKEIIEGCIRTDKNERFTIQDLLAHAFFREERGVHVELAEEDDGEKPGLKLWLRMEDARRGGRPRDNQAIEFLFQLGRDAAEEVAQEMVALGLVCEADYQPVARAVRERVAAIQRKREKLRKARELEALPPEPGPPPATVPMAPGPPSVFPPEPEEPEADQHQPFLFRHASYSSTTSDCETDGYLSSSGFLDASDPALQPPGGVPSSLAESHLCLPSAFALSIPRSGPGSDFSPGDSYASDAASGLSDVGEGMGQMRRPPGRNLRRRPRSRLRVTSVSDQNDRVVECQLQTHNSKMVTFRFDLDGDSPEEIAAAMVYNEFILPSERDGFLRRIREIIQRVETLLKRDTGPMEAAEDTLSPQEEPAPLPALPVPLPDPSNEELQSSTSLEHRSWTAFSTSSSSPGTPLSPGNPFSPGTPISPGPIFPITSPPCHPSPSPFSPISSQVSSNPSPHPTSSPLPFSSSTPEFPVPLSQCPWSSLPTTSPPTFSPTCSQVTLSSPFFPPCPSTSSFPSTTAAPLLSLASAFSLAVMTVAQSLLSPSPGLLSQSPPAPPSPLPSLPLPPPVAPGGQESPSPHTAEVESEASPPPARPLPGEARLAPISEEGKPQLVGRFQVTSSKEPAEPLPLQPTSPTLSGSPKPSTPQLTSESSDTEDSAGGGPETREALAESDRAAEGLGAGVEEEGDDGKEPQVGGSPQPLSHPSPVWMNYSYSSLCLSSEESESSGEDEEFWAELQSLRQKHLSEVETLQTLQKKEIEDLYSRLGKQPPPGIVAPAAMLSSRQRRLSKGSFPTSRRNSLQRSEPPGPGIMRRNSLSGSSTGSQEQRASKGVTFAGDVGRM

kinome (kinase panel) [26] = biological target: T25, kinome (kinase panel) (Homo sapiens, UniProt O94921); settings: PFTK1 (Entrez CDK14); 1000 nM; read-out: Percent Control
T25 construct: purchased Eurofins DiscoverX
T25 sequence (O94921 whole entry): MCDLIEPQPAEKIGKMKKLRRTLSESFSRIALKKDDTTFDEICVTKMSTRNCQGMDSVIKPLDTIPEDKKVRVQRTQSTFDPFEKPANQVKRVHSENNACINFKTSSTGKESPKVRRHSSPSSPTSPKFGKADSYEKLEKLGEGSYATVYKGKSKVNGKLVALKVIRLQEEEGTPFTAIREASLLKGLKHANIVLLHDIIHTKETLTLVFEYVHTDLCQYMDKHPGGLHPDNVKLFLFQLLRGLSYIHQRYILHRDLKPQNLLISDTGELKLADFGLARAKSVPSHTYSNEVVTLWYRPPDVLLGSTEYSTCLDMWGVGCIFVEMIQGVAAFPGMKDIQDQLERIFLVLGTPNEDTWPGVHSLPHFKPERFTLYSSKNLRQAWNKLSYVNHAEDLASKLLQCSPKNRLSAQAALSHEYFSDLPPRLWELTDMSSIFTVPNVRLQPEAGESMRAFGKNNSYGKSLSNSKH

kinome (kinase panel) [27] = biological target: T26, kinome (kinase panel) (Homo sapiens, UniProt O94768); settings: DRAK2 (Entrez STK17B); 1000 nM; read-out: Percent Control
T26 construct: purchased Eurofins DiscoverX

kinome (kinase panel) [28] = biological target: T27, kinome (kinase panel) (Homo sapiens, UniProt Q99558); settings: NIK (Entrez MAP3K14); 1000 nM; read-out: Percent Control
T27 construct: purchased Eurofins DiscoverX

kinome (kinase panel) [29] = biological target: T28, kinome (kinase panel) (Homo sapiens, UniProt P15056, V600E); settings: […]; 1000 nM; read-out: Percent Control
T28 construct: purchased Eurofins DiscoverX

kinome (kinase panel) [30] = biological target: T29, kinome (kinase panel) (Homo sapiens, UniProt P45984); settings: JNK2 (Entrez MAPK9); 1000 nM; read-out: Percent Control
T29 construct: purchased Eurofins DiscoverX

kinome (kinase panel) [31] = biological target: T30, kinome (kinase panel) (Homo sapiens, UniProt Q13233); settings: MAP3K1; 1000 nM; read-out: Percent Control
T30 construct: purchased Eurofins DiscoverX

## CN(C)C(=O)c1cc2cnc(Nc3ccc(-c4csc5c(=O)cc(N6CCOCC6)oc45)cc3)nc2n1C1CCCC1 [SRX3177]
Kinome (kinase panel) [1]
  remaining binding at 1 µM: 79%
Kinome (kinase panel) [2]
  remaining binding at 1 µM: 53%
Kinome (kinase panel) [3]
  remaining binding at 1 µM: 100%
Kinome (kinase panel) [4]
  remaining binding at 1 µM: 2.4%
Kinome (kinase panel) [5]
  remaining binding at 1 µM: 88%
Kinome (kinase panel) [6]
  remaining binding at 1 µM: 98%
Kinome (kinase panel) [7]
  remaining binding at 1 µM: 93%
Kinome (kinase panel) [8]
  Percent Control: 89 and 56
Kinome (kinase panel) [9]; RPS6KA4(Kin.Dom.1-N-terminal)
  remaining binding at 1 µM: 100%
Kinome (kinase panel) [9]; RPS6KA4(Kin.Dom.2-C-terminal)
  remaining binding at 1 µM: 55%
Kinome (kinase panel) [10]
  remaining binding at 1 µM: 94%
Kinome (kinase panel) [11]
  remaining binding at 1 µM: 92%
Kinome (kinase panel) [12]
  specificity in KINOMEscan: lack of off-targeting
Kinome (kinase panel) [12]; EGFR(L747-E749del, A750P)
  Percent Control: 100
Kinome (kinase panel) [12]; EGFR(L747-S752del, P753S)
  Percent Control: 65
Kinome (kinase panel) [12]; EGFR(L747-T751del,Sins)
  Percent Control: 75
Kinome (kinase panel) [12]; FLT3(ITD)
  Percent Control: 49
Kinome (kinase panel) [12]; FLT3(ITD,D835V)
  Percent Control: 27
Kinome (kinase panel) [12]; FLT3(ITD,F691L)
  Percent Control: 45
Kinome (kinase panel) [13]
  Percent Control: 52
Kinome (kinase panel) [13]; read-out: Percent Control
  remaining binding at 1 µM: 57%
Kinome (kinase panel) [14]
  remaining binding at 1 µM: 87%
Kinome (kinase panel) [15]
  remaining binding at 1 µM: 96%
Kinome (kinase panel) [16]
  remaining binding at 1 µM: 49%
Kinome (kinase panel) [17]
  remaining binding at 1 µM: 100%
Kinome (kinase panel) [18]
  remaining binding at 1 µM: 94%
Kinome (kinase panel) [19]
  remaining binding at 1 µM: 100%
Kinome (kinase panel) [20]
  remaining binding at 1 µM: 100%
Kinome (kinase panel) [21]
  remaining binding at 1 µM: 100%
Kinome (kinase panel) [22]
  remaining binding at 1 µM: 90%
Kinome (kinase panel) [23]
  remaining binding at 1 µM: 60%
Kinome (kinase panel) [24]
  remaining binding at 1 µM: 97%
Kinome (kinase panel) [25]
  remaining binding at 1 µM: 90%
Kinome (kinase panel) [26]
  remaining binding at 1 µM: 73%
Kinome (kinase panel) [27]
  remaining binding at 1 µM: 100%
Kinome (kinase panel) [28]
  remaining binding at 1 µM: 45%
Kinome (kinase panel) [29]
  remaining binding at 1 µM: 64%
Kinome (kinase panel) [30]
  remaining binding at 1 µM: 47%
Kinome (kinase panel) [31]
  remaining binding at 1 µM: 40%
